In patent publication US4959363A, “Quinolonecarboxamide compounds, their preparation and use as antivirals” (Sterling Drug Inc., priority 1989, dated 1990):

Columns and labels:
[1] = set-up: species or system albino mice; settings: mouse
[2] = In vitro maximum tolerated dose (MTL), Vero cells; format: cell-based, African Green Monkey; settings: monkey, In Vitro
herpes simplex virus = experiment: In Vivo - Intravaginal Herpes Virus Infection in Mice; set-up: species or system albino mice; settings: Mus musculus, 336 h, oral or intraperitoneal, b.i.d. 5 days, NA = Not active at dose levels tested, read-out: In Vivo MED (Minimum effective dose)
Method: In Vivo - Intravaginal Herpes Virus Infection in Mice
Approximately 1 hr. prior to infection, the vaginas of 15 gm albino mice were swabbed with cotton saturated with 0.1 N NaOH to remove vaginal secretions and to irritate the vaginal mucosa slightly. At the proper time, 0.05 ml of an appropriate dose of herpes simplex virus was placed deep in the vagina. Starting 2.5 hrs. prior to infection, the mice were medicated either orally or intraperitoneally. Medication was continued daily for a total of 5 days on a b.i.d. regimen. The test was terminated after 14 days. A comparison of the number of surviving mice and/or extension of survival was made at the end of the test. The criterion for activity was a statistically significant extension of the average survival time of the test group over that of the control mice in two experiments.

| SMILES | In Vivo MTL (Maximum tolerated dose) [1] | MNTC at 72 h ([2]; vero cells) [µg/mL] | minimal effective dose (herpes simplex virus) [mg/kg/day] | MNTC at 72 h ([2]; Vero cells) [µg/mL] |
| --- | --- | --- | --- | --- |
| NC(=O)c1cn(-c2ccc(F)cc2)c2cc(-c3ccncc3)ccc2c1=O [Example 1h, 1-(4-fluorophenyl)-1,4-dihydro-4-oxo-7-(4-pyridinyl)-3-quinolinecarboxamide] | 50-100 | > 3.1 | 12.5 to 25 |  |
| NC(=O)c1cn(-c2ccc(F)cc2)c2cc(-c3cc[n+]([O-])cc3)ccc2c1=O [Example 2, 1-(4-Fluorophenyl)-1,4-dihydro-4-oxo-7-(N-oxide-4-pyridinyl)-3-quinolinecarboxamide] | 100 | > 12.5 | 25 |  |
| CCN(CC)CNC(=O)c1cn(-c2ccc(F)cc2)c2cc(-c3ccncc3)ccc2c1=O [Example 3, N-(Diethylaminomethyl)-1-(4-fluorophenyl)-1,4-dihydro-4-oxo-7-(4-pyridinyl)-3-quinolinecarboxamide] | 100 | 12.5 | 50 |  |
| O=C(NCN1CCOCC1)c1cn(-c2ccc(F)cc2)c2cc(-c3ccncc3)ccc2c1=O [Example 4, N-(4-Morpholinylmethyl)-1-(4-fluorophenyl)-1,4-dihydro-4-oxo-7-(4-pyridinyl)-3-quinolinecarboxamide] |  | > 12.5 |  |  |
| O=C(NCN1CCCCC1)c1cn(-c2ccc(F)cc2)c2cc(-c3ccncc3)ccc2c1=O [Example 5, N-(1-Piperidinylmethyl)-1-(4-fluorophenyl)-1,4-dihydro-4-oxo-7-(4-pyridinyl)-3-quinolinecarboxamide] |  | > 12.5 |  |  |
| CCn1cc(C(N)=O)c(=O)c2ccc(-c3ccncc3)cc21 [Example 6, 1-Ethyl-1,4-dihydro-4-oxo-7-(4-pyridinyl)-3-quinolinecarboxamide] | 50 | 12.5 | 50 |  |
| CCn1cc(C(N)=O)c(=O)c2ccc(-c3cc(C)nc(C)c3)cc21 [Example 7, 1-Ethyl-1,4-dihydro-4-oxo-7-(2,6-dimethyl-4-pyridinyl)-3quinolinecarboxamide] | 25 | 12.5 |  |  |
| COc1ccc(-n2cc(C(N)=O)c(=O)c3ccc(-c4ccncc4)cc32)cc1 [Example 8, 1,4-Dihydro-1-(4-methoxyphenyl)-4-oxo-7-(4-pyridinyl)-3quinolinecarboxamide] | 50 | > 25 |  |  |
| CC(C)(C)c1ccc(-n2cc(C(N)=O)c(=O)c3ccc(-c4ccncc4)cc32)cc1 [Example 9, 1-[4-(1,1-Dimethylethyl)phenyl]-1,4-dihydro-4-oxo-7-(4-pyridinyl)-3-quinolinecarboxamide] |  | > 25 |  |  |
| NC(=O)c1cn(C2CC2)c2cc(-c3ccncc3)ccc2c1=O [Example 11, 1-Cyclopropyl-1,4-dihydro-4-oxo-7-(4-pyridinyl)-3-quinolinecarboxamide] | 25 | 25 |  |  |
| NC(=O)c1cn(Cc2ccc(Cl)c(Cl)c2)c2cc(-c3ccncc3)ccc2c1=O [Example 12, 1-(3,4-Dichlorobenzyl)-1,4-dihydro-4-oxo-7-(4-pyridinyl)-3-quinolinecarboxamide] | > 100 | > 100 |  |  |
| Cc1ccc(-n2cc(C(N)=O)c(=O)c3ccc(-c4ccncc4)cc32)cc1C [Example 13, 1,4-Dihydro-1-(3,4-dimethylphenyl)-4-oxo-7-(4-pyridinyl)-3-quinolinecarboxamide] |  | > 100 |  |  |
| NC(=O)c1cn(-c2ccc(F)cc2F)c2cc(-c3ccncc3)ccc2c1=O [Example 15, 1-(2,4-Difluorophenyl)-1,4-dihydro-4-oxo-7-(4-pyridinyl)-3-quinolinecarboxamide] | < 25 | 3.1 |  |  |
| Cn1cc(C(N)=O)c(=O)c2ccc(-c3ccncc3)cc21 [Example 16, 1,4-Dihydro-1-methyl-4-oxo-7-(4-pyridinyl)-3-quinolinecarboxamide] | 25 | > 25 |  |  |
| CCCCn1cc(C(N)=O)c(=O)c2ccc(-c3ccncc3)cc21 [Example 17, 1-Butyl-1,4-dihydro-4-oxo-7-(4-pyridinyl)-3-quinolinecarboxamide] | 50 | 6.2 |  |  |
| CCCn1cc(C(N)=O)c(=O)c2ccc(-c3ccncc3)cc21 [Example 18, 1,4-Dihydro-4-oxo-1-propyl-7-(4-pyridinyl)-3-quinolinecarboxamide] |  | 6.25 |  |  |
| C=CCn1cc(C(N)=O)c(=O)c2ccc(-c3ccncc3)cc21 [Example 19, 1,4-Dihydro-4-oxo-1-(2-propenyl)-7-(4-pyridinyl)-3-quinolinecarboxamide] | < 50 | 6.25 |  |  |
| CCn1cc(C(N)=O)c(=O)c2ccc(-c3ccccn3)cc21 [Example 20, 1-Ethyl-1,4-dihydro-4-oxo-7-(2-pyridinyl)-3-quinolinecarboxamide] | 100 | 25 |  |  |

| SMILES | In Vivo MTL (Maximum tolerated dose) [1] | MNTC at 72 h ([2]; vero cells) [µg/mL] | minimal effective dose (herpes simplex virus) [mg/kg/day] | MNTC at 72 h ([2]; Vero cells) [µg/mL] |
| --- | --- | --- | --- | --- |
| NC(=O)c1cn(-c2ccccc2)c2cc(-c3ccncc3)ccc2c1=O [Example 21, 1,4-Dihydro-4-oxo-1-phenyl-7-(4-pyridinyl)-3-quinolinecarboxamide] |  | 6.25 |  |  |
| Cc1cc(-c2ccc3c(=O)c(C(N)=O)cn(-c4ccc(F)cc4)c3c2)on1 [Example 22f] | > 200 | > 100 |  |  |
| CCn1cc(C(N)=O)c(=O)c2ccc(-c3cc(C)no3)cc21 [Example 23d, 1-Ethyl-1,4-dihydro-7-(3-methyl-5-isoxazolyl)-4-oxo-3-quinolinecarboxamide] | > 200 | > 100 |  |  |
| CCn1cc(C(N)=O)c(=O)c2ccc(-c3ccno3)cc21 [Example 24c, 1-Ethyl-1,4-dihydro-7-(5-isoxazolyl)-4-oxo-3-quinolinecarboxamide] | > 200 | 12.5 |  |  |
| CCn1cc(C(N)=O)c(=O)c2cc(F)c(-c3ccncc3)cc21 [Example 25, 1-Ethyl-6-fluoro-1,4-dihydro-4-oxo-7-(4-pyridinyl)-3quinolinecarboxamide] |  | > 100 |  |  |
| CCCCCn1cc(C(N)=O)c(=O)c2ccc(-c3ccncc3)cc21 [Example 26, 1,4-Dihydro-4-oxo-1-pentyl-7-(4-pyridinyl)-3-quinolinecarboxamide] |  |  |  | 6.2 |
| CCn1cc(C(N)=O)c(=O)c2ccc(-c3cccnc3)cc21 [Example 27b, 1-Ethyl-1,4-dihydro-4-oxo-7-(3-pyridinyl)-3-quinolinecarboxamide] | 100 | 50 |  |  |
| CCn1cc(C(=O)NN)c(=O)c2ccc(-c3ccncc3)cc21 [Example 29, 1-Ethyl-1,4-dihydro-4-oxo-7-(4-pyridinyl)-3-quinolinecarboxylic acid hydrazide] | 100 | 50 |  |  |
| CCn1cc(C(=O)NO)c(=O)c2ccc(-c3ccncc3)cc21 [Example 30, 1-Ethyl-1,4-dihydro-N-hydroxy-4-oxo-7-(4-pyridinyl)-3quinolinecarboxamide] | 100 | 25 |  |  |
| NC(=O)c1cn(-c2ccc(Cl)cc2)c2cc(-c3ccncc3)ccc2c1=O [Example 32, 1-(4-Chlorophenyl)-1,4-dihydro-7-(4-pyridinyl)-4-oxo-3quinolinecarboxamide] |  |  | 50 | > 25 |
| Cc1ccc(-n2cc(C(N)=O)c(=O)c3ccc(-c4ccncc4)cc32)cc1 [Example 33, 1,4-Dihydro-1-(4-methylphenyl)-7-(4-pyridinyl)-4-oxo-3quinolinecarboxamide] | 50 | > 25 |  |  |
| NC(=O)c1cn(-c2ccccc2F)c2cc(-c3ccncc3)ccc2c1=O [Example 34, 1,4-Dihydro-1-(2-fluorophenyl)-7-(4-pyridinyl)-4-oxo-3quinolinecarboxamide] | 100 | 1.6 |  |  |
| NC(=O)c1cn(-c2ccc(C(F)(F)F)cc2)c2cc(-c3ccncc3)ccc2c1=O [Example 35, 1,4-Dihydro-7-(4-pyridinyl)-1-(4-trifluoromethylphenyl)-4-oxo-3-quinolinecarboxamide] | 50 | > 100 |  |  |
| CCn1cc(C(=O)NN)c(=O)c2ccc(-c3ccccc3)cc21 [Example 36, 1-Ethyl-1,4-dihydro-4-oxo-7-phenyl-3-quinolinecarboxylic acid hydrazide] | > 200 | 25 |  |  |
| CCn1c(N)c(C(N)=O)c(=O)c2ccc(-c3ccncc3)cc21 [Example 40b, 2-Amino-1,4-dihydro-1-ethyl-4-oxo-7-(4-pyridinyl)-3quinolinecarboxamide] | > 100 | > 12.5 |  |  |
| NC(=O)c1cn(-c2ccc(F)cc2)c2cc(-c3ccccc3)ccc2c1=O [Example 44, 1,4-Dihydro-1-(4-fluorophenyl)-4-oxo-7-phenyl-3-quinolinecarboxamide] | > 200 | 12.5 |  |  |
| NC(=O)c1c(O)n(-c2ccc(F)cc2)c2cc(-c3ccncc3)ccc2c1=O [Example 47e, 1,4-Dihydro-1-(4-fluorophenyl)-2-hydroxy-7-(4-pyridinyl)4-oxo-3-quinolinecarboxamide] |  | > 100 |  |  |
| NC(=O)c1cn(-c2ccc(F)cc2)c2cc(-c3ccncc3)c(F)cc2c1=O [Example 48c] | > 100 | 6.25 |  |  |
